From ChEMBL document CHEMBL1151157, “New cytotoxic steroids from the Indian Ocean sponge Axinella cf. bidderi” (2004)
≈ marks a conversion by molar mass, not a printed value. Calls of active or inactive are those of the source. The rule behind the calls is not given here.

Assays:
Type in all cases: functional
[1] = Cytotoxicity against human IGROV-ET cells by MTT assay
[2] = test system: LNCaP; experiment: Cytotoxicity against human LNCAP cells by MTT assay
[3] = organism: Homo sapiens; experiment: (§1) Cytotoxicity against human NSCLC-N6-L16 cells by MTT assay
[4] = test system: LoVo; experiment: Cytotoxicity against human LoVo cells by MTT assay
[5] = test system: PANC-1; experiment: Cytotoxicity against human PANC1 cells by MTT assay
[6] = as §1

SMILES	GI50 [1] [µg/mL]	GI50 [2] [µg/mL]	Activity [3]	GI50 [4] [µg/mL]	GI50 [5] [µg/mL]	GI50 [6] [µg/mL]	Activity [5]
CC1=C(CCC(C)C)OC[C@]23CC[C@H]4[C@@H](CC=C5C[C@@H](O)CC[C@@]54C)[C@@H]2CC[C@H]13	7.95 (≈ 19.9 µM)	3.52 (≈ 8.83 µM)	inactive	6.91 (≈ 17.3 µM)	8.92 (≈ 22.4 µM)		
CC(C)C(C)C1OC1[C@@H](C)[C@@]1(O)CC[C@H]2[C@@H]3CC=C4C[C@@H](O)CC[C@]4(C)[C@H]3CC[C@@]21C (stereo not given in full)	1.68 (≈ 3.9 µM)	6.42 (≈ 14.9 µM)		4.02 (≈ 9.33 µM)	2.74 (≈ 6.36 µM)	0.6 (≈ 1.39 µM)	
CC1=C(CCC(C)C)OC[C@]23CC[C@H]4[C@@H](CC[C@H]5C[C@@H](O)CC[C@@]54C)[C@@H]2CC[C@H]13	6.66 (≈ 16.6 µM)	2.88 (≈ 7.19 µM)	inactive	8.29 (≈ 20.7 µM)			inactive
CC(C)CC1OC1[C@@H](C)[C@@]1(O)CC[C@H]2[C@@H]3CC=C4C[C@@H](O)CC[C@]4(C)[C@H]3CC[C@@]21C (stereo not given in full)	1.24 (≈ 2.98 µM)	3.09 (≈ 7.42 µM)		6.23 (≈ 15 µM)	2.17 (≈ 5.21 µM)	2 (≈ 4.8 µM)	
